Data taken from patent US9757426B2, “Peptide additives for enhancing acceptance and ingestion of edibles by rodents and uses thereof” (priority 2013, dated 2017).
No end group written: not given here.

Columns and labels:
Format in all cases: in vivo
mice [1] = test: Maintenance over time of uroguanylin-dependent preferences (warfarin-containing foods, retests); conditions: 50 nM uroguanylin
Procedure: Mice form preferences to food and feeding sites when food odors are paired with the social cues uroguanylin. It was determined whether mice will maintain this preference and return to the learned food odor even after the food has been tainted with the commonly used rodenticide warfarin. […] A preference ratio of 0.5 indicates no preference. […] These same mice were retested one and four days after the initial day of testing. […] By contrast, there was no effect of the test day on the preference ratio.

C57BL/6J mice = test: Preference testing after uroguanylin exposure (B6 mice); conditions: mean ± s.e.m.
Excerpt: Food preference testing—Food preference assays were modified from those used previously for testing the social transmission of food preference in rats and mice (Galef et al. 1983; Posadas-Andrews and Roper 1983; Valsecchi and Galef 1989; Crawley 2007; Ryan et al. 2008; Munger et al. 2010). In all experiments, subject mice were pair-housed for four days in standard cages with the food container placed on the cage floor. Mice were fed a crushed rodent diet (2018SX, Harlan) to habituate them to powdered food. The amount of food was restricted to 2 g/mouse/day to facilitate feeding during the food preference tests. […] All data were expressed as mean ±S.E.M. Differences were accepted as significant if p<0.05 (see below for statistical tests).
B6 mice were randomly assigned into one of three groups (n=8 each). On the test day, each mouse was moved to individual cages and presented with a petri dish containing a drop of saline (150 μl) with added flavor powder (2% cocoa or 1% cinnamon) with or without uroguanylin (0, 50 nM or 50 μM). After 1 hr exposure, mice were moved to clean cages. After 3 hrs, mice were presented with two food trays (3.5 cm petri dishes mounted to a weighted plastic stage), one of which contained cocoa-odored food (3.5 g) and the other cinnamon-odored food (3.5 g). Subject mice were allowed to feed for 1 hr, at which point the food trays were removed and weighed to calculate the amount of each food consumed. […] Significance between stimulus conditions was determined by one-way ANOVA.
The chemostimulus CS2, when paired with a food odor, is sufficient to increase the attractiveness of foods and to promote the acquisition of food preferences in mice (Bean et al. 1988; Munger et al. 2010). Whether uroguanylin could serve a similar role was tested. Individual observer mice were allowed to interact with a petri dish containing an odor (2% cocoa or 1% cinnamon) with or without uroguanylin (50 nM or 50 μM) in saline. Each mouse was subsequently presented with a choice of two odored chows (cocoa vs. cinnamon).

mice [2] = test: Concentration/response functions, preference for warfarin-containing food; conditions: both foods contain 0.025% warfarin, +/- SEM
Excerpt: Concentration/response functions were studies for uroguanylin. […] A preference ratio of 0.5 indicates no preference.
Concentration/response functions were also studied for guanylin. […] A preference ratio of 0.5 indicates no preference.

[3] = 1 nM peptide + food odor in saline for 1 hr
[4] = 50 nM peptide + food odor in saline for 1 hr

Substance	Preference ratio (PR) (mice [1]; initial day of testing, both foods contain 0.025% warfarin)	Preference ratio (PR) (mice [1]; retest Day 2, foods contain 0.025% warfarin)	Preference ratio (PR) (mice [1]; retest Day 5, foods contain 0.025% warfarin)	Amount of food consumed, Total food (C57BL/6J mice; Odor + UG (50 nM))	Amount of food consumed, w/demonstrated odor (C57BL/6J mice; Odor + UG (50 nM))	Amount of food consumed, w/novel odor (C57BL/6J mice; Odor + UG (50 nM))	Amount of food consumed, Total food (C57BL/6J mice; Odor + UG (50 μM))	Amount of food consumed, w/demonstrated odor (C57BL/6J mice; Odor + UG (50 μM))	Amount of food consumed, w/novel odor (C57BL/6J mice; Odor + UG (50 μM))	Preference ratio (PR = food with demonstrated odor (g) consumed/total food (g) consumed) (mice [2]; [3])	Preference ratio (PR = food with demonstrated odor (g) consumed/total food (g) consumed) (mice [2]; [4])
uroguanylin (NDDCELCVNVACTGCL; ends and bridges not checked; cysteine pairing not given here; UniProt Q16661 97-112, looked up) [guanylin family peptide, naturally-occurring peptide hormone produced in the intestines; GC-D agonist]	0.76+/−0.04	0.72 +/−0.06	0.74 +/−0.08	1.42 ± 0.19 g	1.08 ± 0.14 g	0.34 ± 0.08 g	1.50 ± 0.26 g	1.15 ± 0.14 g	0.35 ± 0.12 g	0.65 +/−0.05	0.76 +/−0.04
guanylin (PGTCEICAYAACTGC; ends and bridges not checked; cysteine pairing not given here; UniProt Q02747 101-115, looked up) [guanylin family peptide, naturally-occurring peptide hormone produced in the intestines]	–	–	–	–	–	–	–	–	–	0.75 +/−0.04	0.72 +/−0.04
